Reference: patent US20240207350A1, “COMBINATION PREPARATION CONTAINING RESVERATROL” (priority 2021, published 2024)

Tested on: Circulating human tumour cells (CTC's) characterised by EpCAM
Test: in vitro vitality reduction of circulating tumour cells from a blood sample of a prostate carcinoma patient
Assay type: cell-based
Details: CTCs of a prostate carcinoma patient
Text: A patient, suffering from a prostate carcinoma, was examined by checking a blood sample. Circulating human tumour cells (CTC's) characterised by EpCAM and additional cell surface markers have been used. The CTC's have been tested with different anti-cancer drugs. […] Furthermore, the positive effects could be shown to be dose dependent.

C[C@H]1[C@H](OC(=O)CCC(=O)O)O[C@@H]2O[C@@]3(C)CC[C@H]4[C@H](C)CC[C@@H]1[C@@]24OO3 [Artesunat]
Concentration- and time-dependent specific in vitro vitality reduction (%) in the presence of eutherapeutic concentrations (eutherapeutic concentration, not specified): 60%

COc1cc(/C=C/C(=O)CC(=O)/C=C/c2ccc(O)c(OC)c2)ccc1O [Curcumin, curcumin]
Concentration- and time-dependent specific in vitro vitality reduction (%) in the presence of eutherapeutic concentrations (450 mg): 80%

C=C1CC[C@H](O)C/C1=C/C=C1\CCC[C@]2(C)[C@@H]([C@H](C)CCCC(C)(C)O)CC[C@@H]12 [Example 25-OH-D3, 25-OH-D3]
Concentration- and time-dependent specific in vitro vitality reduction (%) in the presence of eutherapeutic concentrations (100 ng/ml): 25%
Concentration- and time-dependent specific in vitro vitality reduction (%) in the presence of eutherapeutic concentrations (200 ng/ml): 30%

CCC(=O)C(CC(C)N(C)C)(c1ccccc1)c1ccccc1 (centres unmarked) [Methadone]
Concentration- and time-dependent specific in vitro vitality reduction (%) in the presence of eutherapeutic concentrations (3 × 15 drops): 30%
